Test results from US20050209195A1, “Indolinone derivatives” (Cell Therapeutics Europe S.r.I, priority 2004, published 2005).
Where two headings read alike, the source gives them in different places.

Key:
[1] = molecular target: T1, Human cKit Tyrosine Kinase Receptor (human cKit RTK-catalytic domain) (Homo sapiens, UniProt P10721); assay: DELFIA cKit Tyrosine Kinase Assay (cell-free); type: biochemical
T1 construct: human cKit RTK-catalytic domain; purchased Panvera-Invitrogen P3080
Experimental: The compounds of the invention were tested with a dedicated cell-free kinase assay for the evaluation of the inhibiting activity on tyrosine kinases.
In more detail, the assay was a DELFIA™ (Dissociation Enhanced Time-Resolved Fluorometric Assay) Tyrosine Kinase Assay™ (PerkinElmer), a highly sensitive, reproducible ELISA assay that allows to evaluate the activity of a tyrosine kinase.
Human cKit Tyrosine Kinase Receptor (human cKit RTK-catalytic domain), commercially available from Panvera-Invitrogen (Cat. N^o. P3080), was used as the tyrosine kinase.
After 1 hour incubation at room temperature and three washings with 1×DELFIA Wash Buffer (PerkinElmer), the phosphotyrosine residues of the acceptor were detected with an europium-labelled anti-phosphotyrosine monoclonal antibody (DELFIA Eu-N1 labelled anti-phosphotyrosine antibody PT66, PerkinElmer) and, after a further hour incubation at room temperature and three washings with 1×DELFIA Wash Buffer, overall phosphorylation of biotinylated polyGAT was determined by addition of Enhancement Solution (PerkinElmer) and fluorimetric analysis of the plates (α-Fusion FP HT, PerkinElmer) in the “Time-Resolved Fluorescence” mode.

[2] = molecular target: T2, human Ret TKR-catalytic domain (Homo sapiens, UniProt P07949); assay: DELFIA Ret Kinase Assay (cell-free); type: biochemical
T2 construct: human Ret TKR-catalytic domain; purchased ProQinase
T2 sequence (P07949 724-1016 limits assumed): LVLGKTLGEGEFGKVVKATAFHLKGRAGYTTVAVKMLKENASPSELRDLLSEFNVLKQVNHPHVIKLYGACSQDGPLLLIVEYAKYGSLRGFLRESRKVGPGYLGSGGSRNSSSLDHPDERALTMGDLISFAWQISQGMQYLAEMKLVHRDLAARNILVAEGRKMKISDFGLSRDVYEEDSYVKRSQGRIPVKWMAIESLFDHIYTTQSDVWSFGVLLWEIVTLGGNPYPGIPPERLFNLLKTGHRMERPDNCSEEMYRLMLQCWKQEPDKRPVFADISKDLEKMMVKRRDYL
Experimental: In order to evidence and quantify inhibitory activity on Ret tyrosine kinase, the most representative compounds of the invention were tested with a dedicated DELFIA kinase assay, using a human tyrosine-kinase receptor (Ret TKR) recombinant form (human Ret TKR-catalytic domain) available from ProQinase as the tyrosine kinase.
After 10 min. incubation at 30° C., the kinase reactions were worked up as in the DELFIA cKit Kinase Assay.

[3] = system: NIH3T3^MEN2A(C634R) cells; assay: Survival curves by Coulter Counter cell count, 72 h; type: cell-based, murine; conditions: Mus musculus, NIH3T3MEN2A, 72 h treatment, read-out: Cont at 72 h IC50
Experimental: (§1) NIH3T3 Murine fibroblasts and the transfected line NIH3T3^MEN2A(C634R) were treated with increasing concentrations of the compounds of the invention for 72 h. Survival curves were obtained by Coulter Counter cell count. IC50s calculated from said curves are reported in Table 9: the higher sensitivity of the oncoprotein-expressing cell line is evident. The reversal of the morphologically transformed phenotype of NIH3T3^MEN2A (C634R) cells in the presence of the compounds of the invention was evaluated by contrast phase microscopy after 24 h treatment and photographically documented.

[4] = system: NIH3T3^MEN2A(C634R) cells; assay: Reversal of morphologically transformed phenotype, contrast phase microscopy, 24 h; type: cell-based, murine; conditions: 24 h treatment; for minimal effective concentration: Mus musculus, NIH3T3MEN2A, read-out: Morphology a 24 h: concentration from which reversal was observed
Experimental: as §1

[5] = cell-free DELFIA, 25 ng cKit TKR, 150 μM ATP, 20 minutes at 30° C., read-out: IC50
[6] = cell-free DELFIA, 50 ng Ret TKR, 3 μM ATP, 10 min. at 30° C., read-out: IC50

T1 sequence (P10721 589-937 limits assumed): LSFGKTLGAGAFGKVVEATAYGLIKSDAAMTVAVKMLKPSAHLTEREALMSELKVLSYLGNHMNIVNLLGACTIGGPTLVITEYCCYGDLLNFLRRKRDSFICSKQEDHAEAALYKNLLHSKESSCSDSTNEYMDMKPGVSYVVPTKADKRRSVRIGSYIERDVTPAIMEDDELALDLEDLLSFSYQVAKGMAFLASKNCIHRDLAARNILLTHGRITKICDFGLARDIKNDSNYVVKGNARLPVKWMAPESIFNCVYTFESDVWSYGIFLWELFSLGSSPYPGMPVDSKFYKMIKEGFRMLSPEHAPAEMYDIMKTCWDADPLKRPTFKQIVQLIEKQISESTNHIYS

SMILES | melting point [°C] | IC50 [1, 5] [µM] | IC50 [2, 6] [µM] | further results
COc1cc2c(cc1OC)/C(=C\c1ccc(OC(=O)NC(C)(C)C)cc1)C(=O)N2 | 238 to 240 | – | – | –
COc1ccc(NC(=O)Oc2ccc(/C=C3/C(=O)Nc4cc(OC)c(OC)cc43)cc2)cc1 | 189 to 191 | – | – | –
COc1cc2c(cc1OC)/C(=C\c1ccc(OC(=O)N(CCO)CCO)cc1)C(=O)N2 | 183 to 185 | – | – | –
CCCCCNC(=O)Oc1ccc(/C=C2/C(=O)Nc3cc(OC)c(OC)cc32)cc1 [A.3, n-Pentyl Carbamic Acid, (E)-4-(5,6-dimethoxy-2-oxo-1,2-dihydro-indol-3-ylidenemethyl)phenyl Ester] | 173 to 175 | 0.38 ± 0.16 | 1.78 | IC50 [3]: 2.2 ± 0.7 µM; Morphology a 24 h [4]: REVERSAL; minimal effective concentration [4]: ≥ 5 µM
CCCCCCNC(=O)Oc1ccc(/C=C2/C(=O)Nc3cc(OC)c(OC)cc32)cc1 [A.4, n-Hexyl Carbamic Acid, (E)-4-(5,6-dimethoxy-2-oxo-1,2-dihydro-indol-3-ylidenemethyl)phenyl Ester] | 168 to 170 | 0.135 | 5.73 | –
COc1cc2c(cc1OC)/C(=C\c1ccc(OC(=O)N3CCOCC3)cc1)C(=O)N2 [B.2, Morpholine-4-carboxylic Acid, (E)-4-(5,6-dimethoxy-2-oxo-1,2-dihydro-indol-3-ylidenemethyl)phenyl Ester] | 255 to 257 | – | – | –
COc1cc2c(cc1OC)/C(=C\c1ccc(OC(=O)N3CCN(CCO)CC3)cc1)C(=O)N2 [B.3, 4-(2-Hydroxyethyl)piperazine-1-carboxylic Acid, (E)-4-(5,6-dimethoxy-2-oxo-1,2-dihydro-indol-3-ylidenemethyl)phenyl Ester] | 217 to 220 | 6.74 | 1.77 | IC50 [3]: 3.1 ± 1.3 µM; Morphology a 24 h [4]: REVERSAL
COc1cc2c(cc1OC)/C(=C\c1ccc(OC(=O)N3CCN(CCOCCO)CC3)cc1)C(=O)N2 [B.6, 4-[2-(2-Hydroxyethoxy)ethyl]piperazine-1-carboxylic Acid (E)-4-(5,6-dimethoxy-2-oxo-1,2-dihydro-indol-3-ylidenemethyl)phenyl Ester] | – | 7.47 | 6.65 | IC50 [3]: 5.6 ± 1.8 µM; Morphology a 24 h [4]: REVERSAL; minimal effective concentration [4]: ≥ 10 µM
COc1cc2c(cc1OC)/C(=C\c1ccc(OCCO)cc1)C(=O)N2 [D.1, (E) 3-[4-(2-hydroxyetoxy)benzylidene]-5,6-dimethoxy-1,3-dihydro-indol-2-one] | – | 3.63 | 1.12 | IC50 [3]: 4.3 ± 0.6 µM; Morphology a 24 h [4]: REVERSAL; minimal effective concentration [4]: ≥ 10 µM
COc1cc2c(cc1OC)/C(=C\c1ccc(OC(=O)Nc3ccccc3)cc1)C(=O)N2 [Example A.1, Phenylcarbamic Acid, (E)-4-(5,6-dimethoxy-2-oxo-1,2-dihydro-indol-3-ylidenemethyl)phenyl Ester] | 201 to 203 | 1.66 | 8.39 | –
CCOP(=O)(OCC)Oc1ccc(/C=C2/C(=O)Nc3cc(OC)c(OC)cc32)cc1 [Example C.2, (E)-4-(5,6-dimethoxy-2-oxo-1,2-dihydro-indol-3-ylidenemethyl)phenyl Diethyl Phosphate] | – | – | – | IC50 [1]: 5.09 µM; IC50 [2]: 63.5 µM; IC50 [3]: 1.7 ± 0.1 µM; Morphology a 24 h [4]: REVERSAL; minimal effective concentration [4]: ≥ 5 µM
COc1cc2c(cc1OC)/C(=C\c1ccc(OC(=O)CCCCNC(=O)OC(C)(C)C)cc1)C(=O)N2 [Example F.2, 5-tert-Butoxycarbonylamino-pentanoic Acid, (E)-4-(5,6-dimethoxy-2-oxo-1,2-dihydro-indol-3-ylidenemethyl)phenyl Ester] | 101 to 103 | 1.2 | 1.37 | –
COc1ccc(OC(=O)Oc2ccc(/C=C3\C(=O)Nc4cc(OC)c(OC)cc43)cc2)cc1 [Example H.2, (Z)-4-(5,6-dimethoxy-2-oxo-1,2-dihydro-indol-3-ylidenemethyl)phenyl, 4-methoxyphenyl Carbonate] | – | 0.28 | 4.84 | –
COc1cc2c(cc1OC)/C(=C/c1ccc(OC(=O)CCCCNC(=O)OC(C)(C)C)cc1)C(=O)N2 [G.2, 5-tert-Butoxycarbonylamino-pentanoic Acid, (Z)-4-(5,6-dimethoxy-2-oxo-1,2-dihydro-indol-3-ylidenemethyl)phenyl Ester] | – | 0.77 | 3.45 | –
COc1cc2c(cc1OC)/C(=C/c1ccc(OC(=O)c3cccn3C)cc1)C(=O)N2 [G.3, 1-Methyl-1H-pyrrole-2-carboxylic Acid, (Z)-4-(5,6-dimethoxy-2-oxo-1,2-dihydro-indol-3-ylidenemethyl)phenyl Ester] | – | 2.65 | 6.38 | –

The next lines start with results.

melting point [°C] | SMILES | IC50 [1, 5] [µM] | IC50 [2, 6] [µM] | further results
> 260 | COc1cc2c(cc1OC)/C(=C\c1ccc(OC(=O)N3CCN(c4ccccc4)CC3)cc1)C(=O)N2 [B.7, 4-Phenylpiperazine-1-carboxylic Acid, (E)-4-(5,6-dimethoxy-2-oxo-1,2-dihydro-indol-3-ylidenemethyl)phenyl Ester] | 2.78 | 3.23 | –
189 to 191 | COc1cc2c(cc1OC)/C(=C\c1ccc(OC(C)=O)cc1)C(=O)N2 [E.2, Acetic Acid, (E)-4-(5,6-dimethoxy-2-oxo-1,2-dihydro-indol-3-ylidenemethyl)phenyl Ester] | – | – | IC50 [3]: 1.5 ± 0.05 µM; Morphology a 24 h [4]: REVERSAL; minimal effective concentration [4]: ≥ 5 µM
227 to 229 | COc1cc2c(cc1OC)/C(=C\c1ccc(OC(=O)c3cccnc3)cc1)C(=O)N2 [E.3, Nicotinic Acid, (E)-4-(5,6-dimethoxy-2-oxo-1,2-dihydro-indol-3-ylidenemethyl)phenyl Ester] | – | – | –
228 to 230 | COc1cc2c(cc1OC)/C(=C\c1ccc(OC(=O)c3ccccc3)cc1)C(=O)N2 [Example E.1, Benzoic Acid, (E)-4-(5,6-dimethoxy-2-oxo-1,2-dihydro-indol-3-ylidenemethyl)phenyl Ester] | – | – | –
138 to 140 | CCCCCCCCCC(=O)Oc1ccc(/C=C2/C(=O)Nc3cc(OC)c(OC)cc32)cc1 [Example F.1, n-decanoic Acid, (E)-4-(5,6-dimethoxy-2-oxo-1,2-dihydro-indol-3-ylidenemethyl)phenyl Ester] | – | – | –
165 to 167 | COc1cc2c(cc1OC)/C(=C\c1ccc(OC(=O)c3cccn3C)cc1)C(=O)N2 [Example F.4, 1-Methyl-1H-pyrrole-2-carboxylic Acid, (E)-4-(5,6-dimethoxy-2-oxo-1,2-dihydro-indol-3-ylidenemethyl)phenyl Ester] | – | – | –
95 to 97 | CCCCCCCCCC(=O)Oc1ccc(/C=C2\C(=O)Nc3cc(OC)c(OC)cc32)cc1 [Example G.1, n-decanoic Acid, (Z)-4-(5,6-dimethoxy-2-oxo-1,2-dihydro-indol-3-ylidenemethyl)phenyl Ester] | – | – | –
117 to 119 | COCCOCCOCC(=O)Oc1ccc(/C=C2/C(=O)Nc3cc(OC)c(OC)cc32)cc1 [F.3, [2-(2-Methoxy-ethoxy)-ethoxy]acetic Acid, (E)-4-(5,6-dimethoxy-2-oxo-1,2-dihydro-indol-3-ylidenemethyl)phenyl Ester] | 5.08 | 3.79 | –
> 250 | COc1cc2c(cc1OC)/C(=C\c1ccc(OC(=O)c3cnccn3)cc1)C(=O)N2 [F.5, Pyrazine-2-carboxylic Acid, (E)-4-(5,6-dimethoxy-2-oxo-1,2-dihydro-indol-3-ylidenemethyl)phenyl Ester] | – | – | –
